Reference: PubChem BioAssay (NCI)
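Where inhibition never reached the appropriate level, the endpoint shown equals the highest concentration tested. Otherwise, values were interpolated linearly from a five-concentration, 48-hour dose response in 96-well plates. At the GI50, growth is halved. TGI denotes the concentration required for complete inhibition of growth.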

How the values were obtained:
Assay in all cases: inhibition of tumour cell growth, NCI panel, 48 h
[1] = tested on: MCF7 breast
[2] = tested on: SK-MEL-2 melanoma
[3] = tested on: SF-295 CNS
[4] = tested on: EKVX NSCLC
[5] = tested on: NCI-H522 lung
[6] = tested on: UACC-257 melanoma
[7] = tested on: OVCAR-3 ovarian
[8] = tested on: HOP-62 NSCLC
[9] = tested on: IGROV1 ovarian
[10] = tested on: OVCAR-5 ovarian
[11] = tested on: MALME-3M melanoma
[12] = tested on: SNB-75 CNS
[13] = tested on: 786-0 renal
[14] = tested on: NCI-H23 lung
[15] = tested on: SK-OV-3 ovarian
[16] = tested on: HL-60(TB) leukemia
[17] = tested on: SK-MEL-5 melanoma
[18] = tested on: NCI-H460 lung
[19] = tested on: HCC-2998 colon
[20] = tested on: SN12C renal
[21] = tested on: SK-MEL-28 melanoma
[22] = tested on: MDA-MB-231 breast
[23] = tested on: NCI/ADR-RES ovarian
[24] = tested on: HOP-92 NSCLC
[25] = tested on: SNB-19 CNS
[26] = tested on: T-47D breast
[27] = tested on: SF-539 CNS
[28] = tested on: RPMI-8226 leukemia
[29] = tested on: HT29 colon
[30] = tested on: HCT-15 colon
[31] = tested on: CCRF-CEM leukemia
[32] = tested on: SR leukemia
[33] = tested on: NCI-H226 lung
[34] = tested on: BT-549 breast
[35] = tested on: LOX IMVI melanoma
[36] = tested on: KM12 colon
[37] = tested on: SW-620 colon
[38] = tested on: M14 melanoma
[39] = tested on: PC-3 prostate
[40] = tested on: MOLT-4 leukemia
[41] = tested on: ACHN renal
[42] = tested on: SF-268 CNS
[43] = tested on: UO-31 renal
[44] = tested on: MDA-MB-468 breast
[45] = tested on: TK-10 renal
[46] = tested on: OVCAR-8 ovarian
[47] = tested on: A498 renal
[48] = tested on: U251 CNS
[49] = tested on: CAKI-1 renal
[50] = tested on: HS 578T breast
[51] = tested on: OVCAR-4 ovarian
[52] = tested on: UACC-62 melanoma
[53] = tested on: DU-145 prostate
[54] = tested on: A549 NSCLC
[55] = tested on: K-562 leukemia
[56] = tested on: COLO 205 colon
[57] = tested on: HCT-116 colon

Q: COc1ccsc1/C=N/NC(=O)c1[nH]c2ccc(Br)cc2c1-c1ccccc1 was tested. Which GI50 [1] did it give?
A: The GI50 was 332 nM.

Q: What about the TGI [1] of the same molecule?
A: The TGI was 16.5 µM.

Q: What about the GI50 [2] of the same molecule?
A: Its GI50 is 308 nM.

Q: And the TGI [2]?
A: Its TGI is 10.7 µM.

Q: What about the GI50 [3] of the same molecule?
A: Its GI50 is 317 nM.

Q: What about the TGI [3] of the same molecule?
A: The TGI was 13.4 µM.

Q: And the GI50 [4]?
A: Its GI50 is 502 nM.

Q: What about the TGI [4] of the same molecule?
A: The TGI was > 100 µM.

Q: What about the GI50 [5] of the same molecule?
A: The GI50 was 187 nM.

Q: What about the TGI [5] of the same molecule?
A: The TGI was 781 nM.

Q: What about the GI50 [6] of the same molecule?
A: The GI50 was 2910 nM.

Q: What about the TGI [6] of the same molecule?
A: The TGI was > 56.9 µM.

Q: What about the GI50 [7] of the same molecule?
A: The GI50 was 407 nM.

Q: And the TGI [7]?
A: Its TGI is 15.3 µM.

Q: What about the GI50 [8] of the same molecule?
A: The GI50 was 468 nM.

Q: What about the TGI [8] of the same molecule?
A: Its TGI is > 45.1 µM.

Q: And the GI50 [9]?
A: The GI50 was 582 nM.

Q: And the TGI [9]?
A: Its TGI is 20.5 µM.

Q: What about the GI50 [10] of the same molecule?
A: Its GI50 is 513 nM.

Q: And the TGI [10]?
A: Its TGI is 68.2 µM.

Q: And the GI50 [11]?
A: The GI50 was 538 nM.

Q: What about the TGI [11] of the same molecule?
A: Its TGI is 25.7 µM.

Q: What about the GI50 [12] of the same molecule?
A: The GI50 was 311 nM.

Q: What about the TGI [12] of the same molecule?
A: Its TGI is 2260 nM.

Q: And the GI50 [13]?
A: The GI50 was 563 nM.

Q: What about the TGI [13] of the same molecule?
A: The TGI was 12.6 µM.

Q: What about the GI50 [14] of the same molecule?
A: The GI50 was 568 nM.

Q: What about the TGI [14] of the same molecule?
A: Its TGI is 25.2 µM.

Q: And the GI50 [15]?
A: Its GI50 is 500 nM.

Q: What about the TGI [15] of the same molecule?
A: The TGI was 34.7 µM.

Q: And the GI50 [16]?
A: Its GI50 is 223 nM.

Q: And the TGI [16]?
A: Its TGI is 605 nM.

Q: What about the GI50 [17] of the same molecule?
A: The GI50 was 315 nM.

Q: What about the TGI [17] of the same molecule?
A: Its TGI is 1150 nM.

Q: And the GI50 [18]?
A: The GI50 was 362 nM.

Q: And the TGI [18]?
A: The TGI was 11 µM.

Q: What about the GI50 [19] of the same molecule?
A: The GI50 was 622 nM.

Q: What about the TGI [19] of the same molecule?
A: Its TGI is 14.5 µM.

Q: What about the GI50 [20] of the same molecule?
A: Its GI50 is 517 nM.

Q: What about the TGI [20] of the same molecule?
A: Its TGI is 8.11 µM.

Q: What about the GI50 [21] of the same molecule?
A: The GI50 was 925 nM.

Q: What about the TGI [21] of the same molecule?
A: Its TGI is 40.8 µM.

Q: What about the GI50 [22] of the same molecule?
A: The GI50 was 437 nM.

Q: What about the TGI [22] of the same molecule?
A: The TGI was 13 µM.

Q: What about the GI50 [23] of the same molecule?
A: The GI50 was 268 nM.

Q: What about the TGI [23] of the same molecule?
A: The TGI was 739 nM.

Q: What about the GI50 [24] of the same molecule?
A: The GI50 was 4.06 µM.

Q: What about the TGI [24] of the same molecule?
A: The TGI was 29.3 µM.

Q: What about the GI50 [25] of the same molecule?
A: The GI50 was 511 nM.

Q: What about the TGI [25] of the same molecule?
A: The TGI was > 100 µM.

Q: What about the GI50 [26] of the same molecule?
A: The GI50 was 449 nM.

Q: What about the TGI [26] of the same molecule?
A: Its TGI is 25.7 µM.

Q: What about the GI50 [27] of the same molecule?
A: Its GI50 is 233 nM.

Q: What about the TGI [27] of the same molecule?
A: The TGI was 584 nM.

Q: What about the GI50 [28] of the same molecule?
A: Its GI50 is 388 nM.

Q: What about the TGI [28] of the same molecule?
A: Its TGI is 3.87 µM.

Q: And the GI50 [29]?
A: Its GI50 is 271 nM.

Q: What about the TGI [29] of the same molecule?
A: The TGI was 698 nM.

Q: What about the GI50 [30] of the same molecule?
A: Its GI50 is 372 nM.

Q: What about the TGI [30] of the same molecule?
A: The TGI was 16.4 µM.

Q: And the GI50 [31]?
A: The GI50 was 311 nM.

Q: What about the TGI [31] of the same molecule?
A: Its TGI is 5.01 µM.

Q: What about the GI50 [32] of the same molecule?
A: The GI50 was 369 nM.

Q: And the TGI [32]?
A: The TGI was > 100 µM.

Q: And the GI50 [33]?
A: Its GI50 is 934 nM.

Q: And the TGI [33]?
A: The TGI was 9.95 µM.

Q: And the GI50 [34]?
A: The GI50 was 739 nM.

Q: And the TGI [34]?
A: The TGI was 5.26 µM.

Q: What about the GI50 [35] of the same molecule?
A: The GI50 was 519 nM.

Q: And the TGI [35]?
A: The TGI was 13.7 µM.

Q: And the GI50 [36]?
A: The GI50 was 428 nM.

Q: What about the TGI [36] of the same molecule?
A: The TGI was 13.8 µM.

Q: What about the GI50 [37] of the same molecule?
A: The GI50 was 413 nM.

Q: And the TGI [37]?
A: Its TGI is > 100 µM.

Q: And the GI50 [38]?
A: Its GI50 is 316 nM.

Q: What about the TGI [38] of the same molecule?
A: Its TGI is 13.7 µM.

Q: And the GI50 [39]?
A: Its GI50 is 410 nM.

Q: What about the TGI [39] of the same molecule?
A: The TGI was 39.7 µM.

Q: And the GI50 [40]?
A: The GI50 was 403 nM.

Q: What about the TGI [40] of the same molecule?
A: The TGI was 11.5 µM.

Q: And the GI50 [41]?
A: Its GI50 is 710 nM.

Q: What about the TGI [41] of the same molecule?
A: Its TGI is 20.7 µM.

Q: And the GI50 [42]?
A: Its GI50 is 997 nM.

Q: And the TGI [42]?
A: The TGI was 39.6 µM.

Q: And the GI50 [43]?
A: Its GI50 is 579 nM.

Q: What about the TGI [43] of the same molecule?
A: Its TGI is 34.8 µM.

Q: And the GI50 [44]?
A: Its GI50 is 273 nM.

Q: And the TGI [44]?
A: The TGI was 870 nM.

Q: And the GI50 [45]?
A: The GI50 was 7.01 µM.

Q: What about the TGI [45] of the same molecule?
A: The TGI was 63.9 µM.

Q: And the GI50 [46]?
A: Its GI50 is 395 nM.

Q: What about the GI50 [47] of the same molecule?
A: Its GI50 is 15.3 µM.

Q: What about the TGI [47] of the same molecule?
A: Its TGI is 53.3 µM.

Q: What about the GI50 [48] of the same molecule?
A: Its GI50 is 410 nM.

Q: What about the TGI [48] of the same molecule?
A: The TGI was 20.5 µM.

Q: What about the GI50 [49] of the same molecule?
A: The GI50 was 464 nM.

Q: And the TGI [49]?
A: The TGI was > 56.6 µM.

Q: What about the GI50 [50] of the same molecule?
A: The GI50 was 338 nM.

Q: And the TGI [50]?
A: Its TGI is 65.2 µM.

Q: And the GI50 [51]?
A: The GI50 was 6.34 µM.

Q: And the TGI [51]?
A: The TGI was > 100 µM.

Q: What about the GI50 [52] of the same molecule?
A: Its GI50 is 306 nM.

Q: And the TGI [52]?
A: Its TGI is 17.5 µM.

Q: And the GI50 [53]?
A: Its GI50 is 454 nM.

Q: And the TGI [53]?
A: Its TGI is > 100 µM.

Q: And the GI50 [54]?
A: The GI50 was 634 nM.

Q: And the TGI [54]?
A: The TGI was > 54.2 µM.

Q: What about the GI50 [55] of the same molecule?
A: The GI50 was 282 nM.

Q: And the TGI [55]?
A: Its TGI is > 55.7 µM.

Q: And the GI50 [56]?
A: Its GI50 is 373 nM.

Q: What about the TGI [56] of the same molecule?
A: Its TGI is 1320 nM.

Q: And the GI50 [57]?
A: Its GI50 is 369 nM.

Q: What about the TGI [57] of the same molecule?
A: Its TGI is 5.51 µM.
